Consider three molecules from paper PMC3713518, “Structure-based discovery of fiber-binding compounds that reduce the cytotoxicity of amyloid beta” (eLife, 2013).

The target of one test is T1, Aβ1–42 fibers (Homo sapiens, UniProt P05067).
T1 construct: gene APP; residues 1-42 of Abeta from APP polyprotein; E. coli His-(NANP)19-TEV fusion, tag cut by TEV; fibrils grown 2 months
Description: 1H NMR of compound with fibers. Conditions: PBS pH 7.4, 283 K; binding to full-length Abeta fibers. The source says: 1H NMR of compound with fibers on Aβ1–42 fibers

The target of another test is T2, KLVFFA (Aβ16–21) fibers (Homo sapiens, UniProt P05067).
T2 construct: gene APP; fibrils grown 3 months; segment of Abeta cut from APP polyprotein
The test is described as follows: 1H NMR titration of compound with fibers. It counts as binding.

T1 sequence (P05067 672-713): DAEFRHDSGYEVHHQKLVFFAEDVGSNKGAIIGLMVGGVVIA

For the molecule `Cc1ccc(O)c(N=Nc2c(O)cc(S(=O)(=O)O)c3ccccc23)c1` [BAF8], at Aβ1–42 fibers, the “Binding to Aβ fiber / NMR peak reduction (%)” value came to 13%. Further, the Kd (usually a measure of binding affinity in units of concentration) on KLVFFA (Aβ16–21) fibers came to 24 ± 5 µM.

Take `O=S(=O)(O)c1cc(S(=O)(=O)O)c2c(N=Nc3ccccc3)c(O)ccc2c1` [orange G]: on Aβ1–42 fibers, the “Binding to Aβ fiber / NMR peak reduction (%)” value stood at 6%. For the same molecule, the Kd on KLVFFA (Aβ16–21) fibers turned out to be 43 ± 21 µM.

Consider `O=C1OC2(c3ccccc31)c1cc(Br)c(O)c(Br)c1Oc1c2cc(Br)c(O)c1Br` [BAF1], for which the “Binding to Aβ fiber / NMR peak reduction (%)” value at Aβ1–42 fibers turned out to be 8%. Further, the Kd on KLVFFA (Aβ16–21) fibers came to 12 ± 7 µM.
